Results published in article PMC12562854, “Resin Glycosides with α-Glucosidase and Protein Tyrosine Phosphatase 1B Inhibitory Activities from the Seeds of Cuscuta japonica” (Biomolecules, 2025).
Where two headings read alike, the source gives them in different places.

Tests used:
[1] = tested on: α-glucosidase; settings: cited from earlier work; for α-Glucosidase inhibition (in words): affinity-directed fractionation-mass spectrometry
[2] = target: T1, α-glucosidase (Saccharomyces cerevisiae, UniProt P53341); assay: α-Glucosidase inhibitory assay (pNPG hydrolysis); format: biochemical; settings: for inhibition at 100 µM: read-out: α-Glucosidase Inhibition (%)
T1 construct: purchased Sigma-Aldrich Inc
Experimental: In brief, 140 μL of phosphate buffer (0.2 M, pH 6.8) was added to the 96-well microplate wells, followed by the addition of 10 μL α-glucosidase solution (0.5 U/mL, Sigma-Aldrich Inc., Saint Louis, MO, USA) and 2 μL of the test compound. The control wells contained 2 μL of DMSO in place of the test sample, while the enzyme solution was replaced by an additional 10 μL of phosphate buffer in the background wells. After preincubation at 37 °C for 10 min, 48 μL of 2 mM p-nitrophenyl-α-D-glucopyranoside (pNPG) was introduced into each well. The reaction mixtures were incubated for 30 min before being terminated by adding 50 μL of 0.1 M Na2CO3 solution. Absorbance was measured at 405 nm using a microplate reader. […] All assays were performed in triplicate and repeated three times independently.

[3] = target: T2, PTP1B (Homo sapiens, UniProt P18031); assay: PTP1B inhibitory assay (pNPP hydrolysis); format: biochemical; settings: for IC50: mean ± SD of three independent experiments; for inhibition at 100 µM: percent inhibition at a concentration of 100 μM
T2 construct: purchased MedChemExpress LLC
T2 sequence (P18031 1-435): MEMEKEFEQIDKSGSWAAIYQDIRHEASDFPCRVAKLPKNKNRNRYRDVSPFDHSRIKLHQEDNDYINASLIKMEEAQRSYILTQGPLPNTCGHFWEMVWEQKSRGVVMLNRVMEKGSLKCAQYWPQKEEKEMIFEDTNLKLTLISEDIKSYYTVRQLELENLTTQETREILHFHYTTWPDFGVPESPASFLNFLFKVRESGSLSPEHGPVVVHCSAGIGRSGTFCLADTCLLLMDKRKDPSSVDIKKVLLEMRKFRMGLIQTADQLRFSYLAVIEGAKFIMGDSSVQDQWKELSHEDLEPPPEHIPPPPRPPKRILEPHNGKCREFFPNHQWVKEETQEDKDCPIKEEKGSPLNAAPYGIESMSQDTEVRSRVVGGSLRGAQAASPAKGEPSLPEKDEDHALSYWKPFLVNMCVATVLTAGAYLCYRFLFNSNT
Experimental: The inhibitory activity against PTP1B was assessed via the p-nitrophenyl phosphate (pNPP) hydrolysis assay. The reaction buffer consisted of 50 mM citrate buffer (pH 6.0) supplemented with 0.1 M NaCl, 2 mM EDTA, and 1 mM DTT. Recombinant PTP1B enzyme (MedChemExpress LLC, Monmouth Junction, NJ, USA) was used at a concentration of 5 μg/mL, with 10 mM pNPP serving as the substrate. The enzymatic reaction was terminated by the addition of 1M NaOH.

[4] = target: T2, PTP1B; assay: Enzyme reversibility and kinetics analysis, PTP1B; format: biochemical
Experimental: (§1) Reversibility was assessed by plotting the enzyme reaction velocity (v) against varying enzyme concentrations in the presence of different inhibitor concentrations. Lineweaver–Burk plots (1/v vs. 1/[S]) were constructed by measuring reaction velocities at multiple substrate concentrations with varying amounts of inhibitors. From these plots, inhibition type, as well as Michaelis–Menten constants Km and Vmax, were determined. Additionally, slopes and Y-intercepts of these reciprocal plots were also plotted against inhibitor concentrations to further characterize the inhibition constants Ki and Kis, respectively.

[5] = target: T1, α-glucosidase; assay: Enzyme reversibility and kinetics analysis, α-glucosidase; format: biochemical
Experimental: as §1

[6] = read-out: α-Glucosidase IC50, mean ± SD of three independent experiments
[7] = secondary plot of Y-intercept from Lineweaver–Burk data
[8] = velocity vs enzyme concentration at different inhibitor levels

T1 sequence (P53341 whole entry): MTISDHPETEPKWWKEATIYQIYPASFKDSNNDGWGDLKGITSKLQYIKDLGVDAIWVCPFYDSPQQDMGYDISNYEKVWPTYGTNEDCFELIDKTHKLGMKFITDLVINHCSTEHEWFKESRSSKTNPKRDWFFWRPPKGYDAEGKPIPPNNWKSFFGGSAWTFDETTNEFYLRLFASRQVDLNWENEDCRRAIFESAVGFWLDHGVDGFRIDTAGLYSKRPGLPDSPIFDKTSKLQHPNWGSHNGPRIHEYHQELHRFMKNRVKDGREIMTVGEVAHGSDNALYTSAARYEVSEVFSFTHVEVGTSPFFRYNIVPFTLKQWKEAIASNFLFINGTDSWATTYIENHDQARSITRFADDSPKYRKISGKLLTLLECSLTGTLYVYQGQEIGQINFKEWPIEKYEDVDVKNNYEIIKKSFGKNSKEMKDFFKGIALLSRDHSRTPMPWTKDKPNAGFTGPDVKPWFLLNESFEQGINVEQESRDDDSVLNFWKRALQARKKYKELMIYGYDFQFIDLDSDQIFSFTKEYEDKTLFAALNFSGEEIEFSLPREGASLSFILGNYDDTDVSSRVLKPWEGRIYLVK

| Molecule | IC50 [2, 6] [µM] | inhibition at 100 µM [2] [%] | IC50 [3] [µM] | inhibition at 100 µM [3] [%] | further results |
| --- | --- | --- | --- | --- | --- |
| CCC[C@H]1CCCCCCCCCC(=O)O[C@H]2[C@H](O[C@H]3[C@H](O)[C@@H](C)O[C@@H](O[C@H]4[C@H](O1)O[C@H](C)[C@@H](O)[C@@H]4O)[C@@H]3O[C@@H]1O[C@@H](C)[C@H](OC(C)=O)[C@@H](O)[C@H]1O)O[C@H](C)[C@@H](O)[C@@H]2OC(=O)[C@H](C)[C@@H](C)O [albinoside VII] | – | – | – | – | α-Glucosidase inhibition (in words) [1]: potent α-glucosidase inhibitors |
| CCCC[C@@H](CCCCCCCCCC(=O)OC)O[C@@H]1O[C@H](CO)[C@@H](O)[C@H](O)[C@H]1O[C@@H]1O[C@@H](C)[C@H](O[C@@H]2O[C@@H](C)[C@H](O[C@@H]3O[C@@H](C)[C@H](O)[C@@H](O)[C@H]3O)[C@@H](O[C@@H]3O[C@H](CO)[C@@H](O)[C@H](O)[C@H]3O)[C@H]2O)[C@@H](O)[C@H]1O [Compound 3, Cusponin III] | 64.9 ± 2.97 | 67.1 ± 1.18 | 14.2 ± 1.29 | 89.2 ± 2.55 | Inhibition type, PTP1B ([4]; Lineweaver–Burk plot): mixed-type; Vmax of PTP1B in presence of inhibitor ([4]; at 25 μM compound 3 (0.104 at 0 μM)): 0.075; Inhibition constant Kis (enzyme–substrate complex), PTP1B [4, 7]: 64.24 µM; Ki ([4]; secondary plot of slope from Lineweaver–Burk data, read-out: Inhibition constant Ki (free enzyme), PTP1B): 24.8 µM; Reversibility of PTP1B inhibition [4, 8]: reversible |
| C[C@H]1[C@H](C)CC[C@]2(C(=O)O)CC[C@]3(C)C(=CC[C@@H]4[C@@]5(C)CC[C@H](O)C(C)(C)[C@@H]5CC[C@]43C)[C@H]12 [Ursolic acid, ursolic acid, reference compound] | – | – | – | 90.4 ± 5.23 | – |
| CCCCC[C@@H](CCCCCCCCCC(=O)OC)O[C@@H]1O[C@H](CO)[C@@H](O)[C@H](O)[C@H]1O[C@@H]1O[C@@H](C)[C@H](O[C@@H]2O[C@@H](C)[C@H](O[C@@H]3O[C@@H](C)[C@H](O)[C@@H](O)[C@H]3O)[C@@H](O[C@@H]3O[C@H](CO)[C@@H](O)[C@H](O)[C@H]3O)[C@H]2O)[C@@H](O)[C@H]1O [Compound 8, operculinic acid B methyl ester] | 65.1 ± 9.41 | 64.6 ± 3.12 | > 100 | 7.78 ± 1.98 | – |
| CCCC[C@@H](CCCCCCCCCC(=O)OC)O[C@@H]1O[C@H](CO)[C@@H](O)[C@H](O)[C@H]1O[C@@H]1O[C@@H](C)[C@H](O[C@@H]2O[C@@H](C)[C@H](O[C@@H]3O[C@@H](C)[C@H](O)[C@@H](O[C@@H]4O[C@H](CO)[C@@H](O)[C@H](O)[C@H]4O)[C@H]3O)[C@@H](O)[C@H]2O)[C@@H](O)[C@H]1O [Compound 1, Cusponin I] | 38.2 ± 3.36 | 68.7 ± 4.11 | > 100 | 5.41 ± 0.67 | – |
| CCCCC[C@@H](CCCCCCCCCC(=O)OC)O[C@@H]1O[C@H](CO)[C@@H](O)[C@H](O)[C@H]1O[C@@H]1O[C@@H](C)[C@H](O[C@@H]2O[C@@H](C)[C@H](O[C@@H]3O[C@@H](C)[C@H](O)[C@@H](O[C@@H]4O[C@H](CO)[C@@H](O)[C@H](O)[C@H]4O)[C@H]3O)[C@@H](O)[C@H]2O)[C@@H](O)[C@H]1O [Compound 2, Cusponin II] | – | 83 ± 0.84 | > 100 | 3.26 ± 0.16 | Inhibition type, α-glucosidase ([5]; Lineweaver–Burk plots): uncompetitive; Vmax of α-glucosidase in presence of inhibitor ([5]; at 16 μM compound 2 (0.115 at 0 μM)): 0.021; Inhibition constant Kis (enzyme–substrate complex), α-glucosidase [5, 7]: 3.02 µM; Reversibility of α-glucosidase inhibition [5, 8]: reversible; IC50 [2]: 8.02 ± 2.9 µM |
| operculinic acid A | – | – | – | – | IC50 ([1]; from Ipomoea biflora): 78.3 µM |
| CCC[C@H]1CCCCCCCCCC(=O)O[C@H]2[C@H](OC[C@H]3O[C@@H](O[C@H]4[C@H](O1)O[C@H](C)[C@@H](O)[C@@H]4O)[C@H](O[C@@H]1O[C@@H](C)[C@H](OC(C)=O)[C@@H](O)[C@H]1O)[C@@H](O)[C@@H]3O)O[C@H](C)[C@@H](O)[C@@H]2OC(=O)[C@H](C)[C@@H](C)O [albinoside VI] | – | – | – | – | α-Glucosidase inhibition (in words) [1]: potent α-glucosidase inhibitors |
| CCCC[C@@H](CCCCCCCCCC(=O)OC)O[C@@H]1O[C@H](C)[C@H](O)[C@H](O)[C@H]1O[C@@H]1O[C@H](CO)[C@@H](O)[C@H](O[C@@H]2O[C@H](CO)[C@@H](O)[C@H](O)[C@H]2O)[C@H]1O[C@@H]1O[C@@H](C)[C@H](OC(=O)[C@H](C)[C@@H](C)OC(=O)[C@H](C)[C@@H](C)O)[C@@H](O)[C@H]1O [Compound 5, Cusponin V] | > 100 | 51.8 ± 1.77 | 62.3 ± 8.61 | 52.7 ± 4.6 | – |
| CCCC[C@@H](CCCCCCCCCC(=O)OC)O[C@@H]1O[C@H](C)[C@H](O)[C@H](O)[C@H]1O[C@@H]1O[C@H](CO)[C@@H](O)[C@H](O[C@@H]2O[C@H](CO)[C@@H](O)[C@H](O)[C@H]2O)[C@H]1O[C@@H]1O[C@@H](C)[C@H](OC(=O)[C@H](C)[C@@H](C)O)[C@@H](O)[C@H]1O [Compound 6, Cusponin VI] | 71.4 ± 3.23 | 60.5 ± 5.42 | > 100 | 29.9 ± 4.5 | – |
| CCCC[C@@H](CCCCCCCCCC(=O)OC)O[C@@H]1O[C@H](C)[C@H](O)[C@H](O)[C@H]1O[C@@H]1O[C@H](CO)[C@@H](O)[C@H](O[C@@H]2O[C@H](CO)[C@@H](O)[C@H](O)[C@H]2O)[C@H]1O[C@@H]1O[C@@H](C)[C@H](O)[C@@H](O)[C@H]1O [Compound 7, Cusponin VII] | > 100 | 49.4 ± 1.71 | > 100 | 15.9 ± 2.92 | – |
| CCCC[C@@H](CCCCCCCCCC(=O)OC)O[C@@H]1O[C@H](C)[C@H](O)[C@H](O)[C@H]1O[C@@H]1O[C@@H](C)[C@H](O[C@@H]2O[C@@H](C)[C@H](O[C@@H]3O[C@@H](C)[C@H](O)[C@@H](O)[C@H]3O)[C@@H](O[C@@H]3O[C@H](CO)[C@@H](O)[C@H](O)[C@H]3O)[C@H]2O)[C@@H](O)[C@H]1O [Compound 4, Cusponin IV] | 55.5 ± 6.89 | 66.5 ± 3.65 | > 100 | 15 ± 2.45 | – |
